Patent US9345744B2, “Peptide-based collagen modulators for wound healing and tissue repair” (MUSC FOUNDATION FOR RESEARCH DEVELOPMENT, priority 2012, dated 2016)
“Also recorded” adds a separate entry of the source. Like-named read-outs stand apart in the source and are kept apart here.

Experiments:
[1] = test system: Sprague Dawley rats, latissimus dorsi muscle; assay: Silicon wafer implant with exogenous ATP or apyrase, histology at 24 hours; type: in vivo, rat; conditions: for inflammatory infiltrate in the implant region: implant plus exogenous agent
From the text: FIG. 16. A composite panel of microscopy images taken from H&E stained sections of muscle tissue adjacent to the silicon implant. […] The other images in the panel are high magnification showing areas of high inflammation and necrosis bottom two panels and relatively low inflammation away from the implant site, upper right. The top right set of images is from the tissue adjacent to the implant that had also been treated with exogenous ATP. […] And that by modulating the ATP signal we can potentially modulate the initial inflammatory reaction.
15 male Sprague Dawley rats underwent unilateral implantation of silicon wafer implants. Three animals received implants only, three received implants plus exogenous ATP, three received implants plus exogenous apyrase, an enzyme that scavenges ATP, three underwent surgery alone without an implant, and three received a percutaneous injection of exogenous ATP into the latissimus dorsi muscle. The implants were harvested after 24 hours to evaluate the extent of inflammatory infiltrate and preservation of muscle.

[2] = test system: HMVECs; assay: ATP release from endothelial cells; type: cell-based, human
Procedure: FIG. 15. ATP is released from endothelial cells in response to low Ca^2+ and the inflammatory cytokine IL-6. HMVECs were treated for 5 hours with either nothing or IL-6 (0.01 ng/mL). After the 5 hr incubation, HBSS (w/Ca^2+ and Mg^2+)—25 mM HEPES was added to one set of controls (“Control”) and the IL-6 treated cells for 5 min. To the other set of control wells, HBSS (w/o Ca^2+ and Mg^2+)—25 mM HEPES was added as a positive control for Cx43 hemichannel-mediated ATP release (“Low Ca^2+”). The error bars represent the standard error for replicates within the same experiment.
The possibility that Cx43 acts as a mediator of inflammation through hemichannel mediated release of ATP was further examined Studies on ATP release in the HeLa cell models, as well as primary human microvascular endothelial cells (HMVECs), were performed. […] However, the inventors also observed that, in preliminary experiments, ATP released in response to low Ca^2+ was not inhibited by treatment with mefloquine, a commonly used connexin channel blocker. Endothelial cells may also release ATP through vesicular exocytotic mechanisms in a Ca^2+ dependent manner (Bodin and Burnstock, 2001; McDonald et al., 2010). Pannexin channels, which can also mediate ATP release, are similarly sensitive to mefloquine (Lohman et al., 2012; Bodin et al, 2001).

[3] = test system: Sprague-Dawley rats with silicone disks; conditions: cited from earlier work
[4] = test system: SD rat cornea; conditions: cited from earlier work
[5] = test system: CD1 mice, LV cryo-injury; conditions: cited from earlier work
[6] = test system: adult rat brain injury; conditions: 100 μM in 2% collagen vehicle; cited from earlier work
[7] = molecular target: T1, Cx43 hemichannel (Homo sapiens, UniProt P17302); conditions: Rhett et al., 2011; cited from earlier work
T1 construct: expressed in transfected cells
T1 sequence (P17302 whole entry): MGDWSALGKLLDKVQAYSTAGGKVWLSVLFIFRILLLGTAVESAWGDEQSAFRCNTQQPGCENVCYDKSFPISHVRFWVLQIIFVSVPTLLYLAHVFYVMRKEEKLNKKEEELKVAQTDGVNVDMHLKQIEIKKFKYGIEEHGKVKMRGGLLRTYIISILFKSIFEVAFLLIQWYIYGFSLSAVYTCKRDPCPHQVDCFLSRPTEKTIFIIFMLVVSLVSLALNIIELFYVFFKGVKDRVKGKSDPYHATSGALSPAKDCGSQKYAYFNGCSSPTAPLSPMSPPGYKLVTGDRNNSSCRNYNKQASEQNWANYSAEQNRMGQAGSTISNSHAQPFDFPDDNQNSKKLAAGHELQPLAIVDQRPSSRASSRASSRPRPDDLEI

[8] = test system: myocytes from neonatal rats; conditions: 30 μM, 5 days; cited from earlier work
[9] = test system: NIH-3T3 cells; conditions: 30 μM, cited from earlier work
[10] = cited from earlier work
[11] = test system: C6 glioma cell line; conditions: cited from earlier work
[12] = test system: adult mouse skin wound; conditions: cited from earlier work
[13] = test system: rat skin wound; conditions: cited from earlier work
[14] = test system: C57BL/6 mouse, laser-induced CNV; conditions: cited from earlier work
[15] = test system: U87 MG glioblastoma cells; conditions: cited from earlier work
[16] = test system: neonatal mouse skin wound; conditions: cited from earlier work
[17] = test system: implants in skeletal muscle; assay: Inflammatory infiltrate at implants, myeloperoxidase stain; type: in vivo; conditions: 24 hour time point
From the text: In attempting to quantify the neutrophil infiltrate using a myeloperoxidase stain, the inventors observed that some of the cells stained darker than others. Upon further investigation, these cells were not neutrophils as but rather were macrophages.

[18] = test system: ARPE19 cell; conditions: cited from earlier work
[19] = test system: neonatal rat cardiac fibroblast cells; assay: Western blot of collagen type I in conditioned media and cell lysates of peptide-treated neonatal cardiac fibroblasts; type: cell-based
From the text: Isolation and treatment of Neonatal Cardiac Fibroblasts with Cx43 based peptides (peptides used included ACT1, JM1, JM2, Antenapedia [ANT], reverse ACT1 [Rev], poly Arginine [poly r]). Neonatal cardiac fibroblasts (NHFs) were isolated from 3-4 day old rat hearts by collagenase digestion (100 U/mL) and differential attachment as previously described (Borg et al., 1984). All cells were maintained in Dulbecco's Modified Eagle Medium (DMEM) supplemented with 10% Fetal Bovine Serum and 100 U/mL penicillin G and 100 μg/mL streptomycin and used prior to passage four. For experiments, 40,000 NHFs were plated into the wells of a 24-well tissue culture plate and grown for 24-48 hours. On the day of treatment, media was removed from each well and replaced with fresh media containing 50 μg/mL L-ascorbic acid-2-phosphate; Sigma Chemical Co., St. Louis, Mo.). The appropriate volume of each peptide (resuspended in sterile, deionized 18 MΩ resistivity water) was added to achieve the desired final concentration (30, 90, 180 μM peptide concentrations were tested). Culture plates were incubated overnight in a 37° C. incubator with 5% CO2.
Conditioned culture media was collected from each well and stored at −20° C. for analysis of soluble collagen. Cellular protein, including insoluble collagen and collagen still within the NHFs, were isolated by adding 100-200 μL of cell lysis buffer (0.01 M Tris, pH 7.4, 0.001 M Sodium Orthovanadate, 1% sodium dodecylsulfate [SDS]) to each well and incubating 10 minutes at room temperature. Prior to addition, cell lysis buffer was warmed to facilitate solubilzation of SDS and 100 μL of Halt protease inhibitor (Pierce Biotechnology, Rockford, Ill.) was added per 10 mL buffer to be used. […] Protein concentrations of cell lysates were determined using a Micro BCA assay (Pierce). […] The presence of collagen was determined by probing the membranes with a rabbit anti-mouse collagen type I antibody (MD Biosciences) at 1:20,000 dilution in blocking buffer (5% milk in Tris-buffered saline) followed by a goat anti-rabbit IgG horseradish peroxidase conjugated antibody at 1:100,000 (Southern Biotech Associates) and detection with Pierce SuperSignal Femto West detection reagent (Pierce).
To assess the activity of JM1 and JM2 peptides with respect to collagen production and their potential in mediating wound healing, cardiac fibroblasts were treated with these two peptides and their effectiveness compared to that for the previous described Cx43 peptide ACT1. NHFs were treated with various concentrations of JM1, JM2, ACT1, and ANT (Antenapedia) peptides, vehicle (water) or left untreated and the production of collagen both in the culture media and cell-associated collagen assessed by western blotting. […]

## Nc1ncnc2c1ncn2[C@@H]1O[C@H](COP(=O)(O)OP(=O)(O)OP(=O)(O)O)[C@@H](O)[C@H]1O [ATP]
[1]
  inflammatory infiltrate in the implant region: profound increase in inflammatory infiltrate
[1]; percutaneous injection, no implant
  inflammatory infiltrate in skeletal muscle: more inflammatory infiltrate than the surgery alone; also recorded: causes significant inflammation

## OC(c1cc(C(F)(F)F)nc2c(C(F)(F)F)cccc12)C1CCCCN1 (stereo not shown) [mefloquine]
[2]; treatment with blocker, preliminary experiments
  ATP released in response to low Ca2+: not inhibited

## IL-6: the inflammatory cytokine IL-6
[2]; IL-6 0.01 ng/mL, 5 hours
  ATP release: increased ATP release

## RQPKIWFPNRRKPWKKRPRPDDLEI [ACT1, Cx43 carboxyl-terminal peptide incorporating aas 373 to 382 of Cx43, U.S. Pat. No. 7,786,074]
[3]; capsulectomies days 1-28
  neutrophil infiltration: attenuating neutrophil infiltration
[3]; rat, in vivo
  presence of contractile myofibroblasts: reducing the continued presence of contractile myofibroblasts
  type I collagen deposition around the implant: reducing type I collagen deposition around the implant
  vascularity of the capsule tissue: increasing vascularity of the capsule tissue
[4]; 24 hrs
  corneal re-epithelialization: re-epithelializing much faster than control corneas
[4]; 72 hrs
  corneal re-epithelialization: significantly greater re-epithelialization
[4]; rat, in vivo
  corneal closure and regeneration: faster closure and more complete corneal regeneration
[5]; 8 week time course
  LV diastolic and systolic function: significant improvement
[5]; mouse, in vivo
  scar uniformity: significantly increased scar uniformity
[5]; pacing and S1-S2 protocols
  frequency and severity of arrhythmias: dramatically reduced
[6]
  NeuN immunolabeled neurons proximal to the HFM: higher numbers
  density of GFAP-positive astrocytes adjacent the HFM: much lower density
[7]
  Cx43 hemichannel activity: inhibits Cx43 hemichannel activity
[8]
  extent of Cx43 gap junction formation between myocytes: greatly increased
[9]; 24 hours
  repopulation of scratch injury: few cells repopulating the area
[9]
  proliferation of the cells: reduced proliferation
[10]; 100 uM, corneal application, 20 and 40 minutes
  peptide in aqueous humor (anterior chamber): detectable level
[10]; 20 and 40 minutes
  peptide in vitreous humor (posterior chamber), Western blotting: Lower levels of peptide could also be detected
[10]; corneal application
  peptide in retinal pigment epithelial layer: detectable in the retinal pigment epithelial layer
[11]; C6, Boyden chamber
  motility across a porous membrane: significantly decreased
[11]; C6
  adhesive properties: did not change
  cell morphology: altered morphology
[12]; 100 μM in 30% pluronic gel, 10-14 day time course
  closure, inflammation, healing and scarring of excisional injuries: closed faster, were less inflamed in appearance, healed faster and scarred less
[12]; 7 and 10 days post-wounding
  scarring/overall appearance: significantly improved
[12]; 24 hr and 4 days post-wounding
  wound redness: significantly decreased
[12]; 24 hr, 4, 7 and 10 days
  wound size: significantly smaller in size
[13]; 150 μM peptide, 30 days
  scar area and scar tissue volume / scar size: significantly (p<0.05) smaller
[13]; versus the other 4 wounds
  wound closure rates: significantly faster closure rates
[14]; relative to PBS controls
  CNV lesion size / injury spread: significantly reduced; also recorded: reduced CNV injury spread
[14]; relative to controls
  retinal function (ERG): improved retinal function
[15]; Boyden chamber
  motility across a porous membrane: significantly decreased
[15]
  aggregation: higher degree of aggregation
[16]; 60 μM in 20% pluronic gel, 48 hours
  wound closure, inflammation, swelling: significantly more closed, less inflamed, less swollen
[16]; 60 μM, 7 days
  wound appearance / scarring: smoother and less scarred appearance
[17]
  primary inflammatory infiltrate: macrophages
[18]; pre-treatment with peptide
  VEGF-dependent drop in TER: ameliorated the drop in TER; also recorded: blocked
[19]; 30, 90, 180 μM, overnight
  secretion/production of mature, fully processed type I collagen (conditioned media): decreased levels of fully processed collagen I a1 chains; also recorded: dose-dependent reduction
[19]; ACT1, highest doses of JM1 and JM2
  higher molecular weight collagen species in cell lysate: absence of higher molecular weight collagen species
[19]; cell lysates, JM1, JM2 at maximum dose tested
  mature / processed type I collagen in NHF cell lysate: slight decreases in processed collagen I a1 chains
[19]; cultured fibroblasts, FIGS. 1 and 2
  collagen synthesis, processing and secretion from fibroblasts: reduced collagen processing and secretion

## VEGF
[18]; VEGF alone, by 4 hours post-application
  TER: significantly (p<0.05) reduces TER; also recorded: rapid deterioration

## apyrase
[1]
  inflammatory infiltrate in the implant region: significantly reduced the inflammatory infiltrate; also recorded: marked decrease in inflammatory infiltrate
